Source: US9822114B2, “Tricyclic oxazolidinone antibiotic compounds” (Idorsia Pharmaceuticals Ltd, priority 2008, dated 2017)
In brackets after ≈: the same amount, converted by molar mass.

Tested on: M. catarrhalis A894
Test: Minimal inhibitory concentration (MIC), microdilution method in cation-adjusted Mueller-Hinton Broth (CLSI M7-A7)
Assay type: cell-based
Details: Moraxella catarrhalis, strain A894
Description: Minimal inhibitory concentrations (MICs; mg/1) were determined in cation-adjusted Mueller-Hinton Broth by a microdilution method following the description given in “Methods for Dilution Antimicrobial Susceptibility Tests for Bacteria that Grow Aerobically”, Approved standard, 7th ed., Clinical and Laboratory Standards Institute (CLSI) Document M7-A7, Wayne, Pa., USA, 2006.

| Structure (SMILES) | MIC [µg/mL] |
| --- | --- |
| O=C1CSc2ccc(N3C[C@@H](CCCN[C@@H]4Cn5c(=O)ccc6ncc(F)c4c65)OC3=O)nc2N1 [Example 147, (S)-3-fluoro-4-{3-[(R)-2-oxo-3-(3-oxo-3,4-dihydro-2H-pyrido[3,2-b][1,4]thiazin-6-yl)-oxazolidin-5-yl]-propylamino}-4,5-dihydro-pyrrolo[3,2,1-de][1,5]naphthyridin-7-one] | ≤ 0.031 |
| O=C1COc2ccc(N3C[C@@H](CNCCC4Cn5c(=O)ccc6ccc(F)c4c65)OC3=O)cc2N1 (mixture of isomers) [Example 9, (1RS)-9-fluoro-1-(2-{[(R)-2-oxo-3-(3-oxo-3,4-dihydro-2H-benzo[1,4]oxazin-6-yl)-oxazolidin-5-ylmethyl]-amino}-ethyl)-1,2-dihydro-pyrrolo[3,2,1-ij]quinolin-4-one] | ≤ 0.031 |
| O=C1COc2ccc(N3C[C@@H](CCNCC4Cn5c(=O)ccc6ncc(F)c4c65)OC3=O)cc2N1 (mixture of isomers) [Example 103, (RS)-3-fluoro-4-({2-[(R)-2-oxo-3-(3-oxo-3,4-dihydro-2H-benzo[1,4]oxazin-6-yl)-oxazolidin-5-yl]-ethylamino}-methyl)-4,5-dihydro-pyrrolo[3,2,1-de][1,5]naphthyridin-7-one] | ≤ 0.031 |
| O=C1CSc2ccc(N3C[C@H](CCCN[C@H]4Cn5c(=O)ccc6ccc(F)c4c65)OC3=O)nc2N1 [Example 195, (R)-9-fluoro-1-{3-[(S)-2-oxo-3-(3-oxo-3,4-dihydro-2H-pyrido[3,2-b][1,4]thiazin-6-yl)-oxazolidin-5-yl]-propylamino}-1,2-dihydro-pyrrolo[3,2,1-ij]quinolin-4-one] | ≤ 0.031 |
| O=C1COc2ccc(N3C[C@@H](CNCC4Cn5c(=O)ccc6ncc(F)c4c65)OC3=O)cc2N1 (mixture of isomers) [Example 98, (RS)-3-fluoro-4-({[(R)-2-oxo-3-(3-oxo-3,4-dihydro-2H-benzo[1,4]oxazin-6-yl)-oxazolidin-5-ylmethyl]-amino}-methyl)-4,5-dihydro-pyrrolo[3,2,1-de][1,5]naphthyridin-7-one] | 0.25 |

Now from value to molecule:

| MIC [µg/mL] | Structure (SMILES) |
| --- | --- |
| ≤ 0.031 | O=C1CSc2ccc(N3C[C@@H](CCCNC4Cn5c(=O)ccc6cccc4c65)OC3=O)cc2N1 (mixture of isomers) [Example 35, (RS)-1-{3-[(R)-2-oxo-3-(3-oxo-3,4-dihydro-2H-benzo[1,4]thiazin-6-yl)-oxazolidin-5-yl]-propylamino}-1,2-dihydro-pyrrolo[3,2,1-ij]quinolin-4-one] |
| ≤ 0.031 | O=C1CSc2ccc(N3C[C@@H](CCCN[C@H]4Cn5c(=O)cnc6cccc4c65)OC3=O)cc2N1 [Example 64, (R)-6-{3-[(R)-2-oxo-3-(3-oxo-3,4-dihydro-2H-benzo[1,4]thiazin-6-yl)-oxazolidin-5-yl]-propylamino}-5,6-dihydro-pyrrolo[1,2,3-de]quinoxalin-3-one] |
| 0.5 (≈ 1.08 µM) | O=C1CSc2ccc(N3C[C@H](CCN[C@@H]4Cn5c(=O)ccc6nccc4c65)OC3=O)cc2N1 [Example 41, (S)-4-{2-[(S)-2-oxo-3-(3-oxo-3,4-dihydro-2H-benzo[1,4]thiazin-6-yl)-oxazolidin-5-yl]-ethylamino}-4,5-dihydro-pyrrolo[3,2,1-de][1,5]naphthyridin-7-one] |
| ≤ 0.031 | O=C1COc2ccc(N3C[C@@H](CCCN[C@H]4Cn5c(=O)cnc6cccc4c65)OC3=O)cc2N1 [Example 65, (R)-6-{3-[(R)-2-oxo-3-(3-oxo-3,4-dihydro-2H-benzo[1,4]oxazin-6-yl)-oxazolidin-5-yl]-propylamino}-5,6-dihydro-pyrrolo[1,2,3-de]quinoxalin-3-one] |
| ≤ 0.031 | O=C1CSc2ccc(N3C[C@@H](CCCN[C@@H]4Cn5c(=O)cnc6cccc4c65)OC3=O)cc2N1 [Example 48, (S)-6-{3-[(R)-2-oxo-3-(3-oxo-3,4-dihydro-2H-benzo[1,4]thiazin-6-yl)-oxazolidin-5-yl]-propylamino}-5,6-dihydro-pyrrolo[1,2,3-de]quinoxalin-3-one] |
